We go through 13 compounds from ChEMBL document CHEMBL3638726, “Substituted indole compounds having NOS inhibitory activity” (2013).

Test [1] concerns the target 5-hydroxytryptamine 1D receptor (Bos taurus, UniProt Q8MI13). In words: Binding Assay: 5-HT1D binding assays (agonist radioligand)were performed using bovine caudate membranes according to the methods of Heuring and Peroutka (J. Neurosci 1987, 7: 894-903). 5-HT1B (rat cerebral cortex) binding assays (agonist radioligand) were performed according to the method of Hoyer et. al. (Eur. J. Pharmacol. […], 118: 1-12). It counts as tissue-based.

Another test has as its target T1, Nitric oxide synthase 3 (Homo sapiens, UniProt P29474).
T1 sequence (P29474 whole entry): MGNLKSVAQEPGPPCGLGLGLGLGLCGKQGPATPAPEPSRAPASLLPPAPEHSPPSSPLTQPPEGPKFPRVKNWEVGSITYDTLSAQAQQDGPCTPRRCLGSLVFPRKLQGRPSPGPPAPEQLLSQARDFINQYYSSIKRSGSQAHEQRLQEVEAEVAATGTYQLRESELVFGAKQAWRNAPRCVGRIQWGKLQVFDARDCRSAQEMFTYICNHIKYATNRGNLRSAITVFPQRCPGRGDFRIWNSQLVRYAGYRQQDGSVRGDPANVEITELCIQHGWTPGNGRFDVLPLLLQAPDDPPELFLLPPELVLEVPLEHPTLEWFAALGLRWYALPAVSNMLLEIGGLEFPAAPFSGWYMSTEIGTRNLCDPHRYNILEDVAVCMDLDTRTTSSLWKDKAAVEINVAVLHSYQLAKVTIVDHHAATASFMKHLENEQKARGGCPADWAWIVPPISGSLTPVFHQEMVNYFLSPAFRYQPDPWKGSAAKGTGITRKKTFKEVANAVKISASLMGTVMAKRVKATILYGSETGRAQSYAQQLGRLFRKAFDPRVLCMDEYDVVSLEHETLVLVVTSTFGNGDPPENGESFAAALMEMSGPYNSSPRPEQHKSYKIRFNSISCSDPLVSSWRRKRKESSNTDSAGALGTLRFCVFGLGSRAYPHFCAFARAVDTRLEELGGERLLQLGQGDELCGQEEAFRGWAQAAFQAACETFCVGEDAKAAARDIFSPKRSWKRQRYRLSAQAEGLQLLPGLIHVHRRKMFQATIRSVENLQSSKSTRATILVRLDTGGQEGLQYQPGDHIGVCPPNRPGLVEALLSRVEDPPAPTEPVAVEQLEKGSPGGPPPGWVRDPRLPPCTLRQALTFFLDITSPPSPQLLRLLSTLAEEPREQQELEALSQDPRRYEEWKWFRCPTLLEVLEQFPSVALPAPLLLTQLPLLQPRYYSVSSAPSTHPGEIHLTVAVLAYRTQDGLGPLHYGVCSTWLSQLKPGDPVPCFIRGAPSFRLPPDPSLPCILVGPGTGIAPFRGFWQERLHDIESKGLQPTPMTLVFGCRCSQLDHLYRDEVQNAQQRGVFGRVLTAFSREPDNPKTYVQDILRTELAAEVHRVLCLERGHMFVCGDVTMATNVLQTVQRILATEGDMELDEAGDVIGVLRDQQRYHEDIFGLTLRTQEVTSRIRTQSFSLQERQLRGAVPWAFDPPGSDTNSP
Kind of test: Enzyme Assay: Enzyme assay using recombinant human inducible NOS (iNOS), human endothelial constitutive NOS (eNOS) or human neuronal constitutive NOS (nNOS).

5-hydroxytryptamine 1D receptor, sequence (Q8MI13 whole entry): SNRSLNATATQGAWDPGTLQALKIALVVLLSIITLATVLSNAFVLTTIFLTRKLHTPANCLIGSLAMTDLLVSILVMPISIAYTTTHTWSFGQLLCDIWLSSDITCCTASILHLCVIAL

Broadly, the IC50 is the concentration at which inhibition is half-maximal. Take `CN1CC=C(c2c[nH]c3ccc(NC(=S)NC(=O)c4ccccc4)cc23)CC1`: the half-inhibitory concentration (IC50) in test [1] was 56 nM.
The same measure, in the same setting: then `CN1CC=C(c2c[nH]c3ccc(CNC(=N)c4cccs4)cc23)CC1`, with 220 nM; and `CN1CC=C(c2c[nH]c3ccc(NC(=N)c4cccs4)cc23)CC1`, with 51 nM.
On the same count and under the same terms, then `CN1CC=C(c2c[nH]c3ccc(NC(=N)c4ccco4)cc23)CC1`, with 50 nM; and `CN1CCC(c2c[nH]c3ccc(NC(=N)c4cccs4)cc23)CC1`, with 570 nM; and `CCSC(=N)Nc1ccc2[nH]cc(C3=CCN(C)CC3)c2c1`, with 48 nM.
Still for that read-out and setting: the figure for `CN(C)CCc1c[nH]c2ccc(CNC(=N)c3cccs3)cc12` is 290 nM; for `CCN1CCC(c2c[nH]c3ccc(NC(=N)c4cccs4)cc23)CC1` it is 680 nM.
`CN1CCC[C@@H]1Cc1c[nH]c2ccc(NC(=N)c3cccs3)cc12` displayed a half-maximal inhibitory concentration (IC50) in test [1] of 130 nM.
In turn, `CN1CCC[C@H]1Cc1c[nH]c2ccc(NC(=N)c3cccs3)cc12` gave an IC50 in test [1] of 1100 nM.
In test [1], `CN1CCC(c2c[nH]c3ccc(NC(=N)c4cccs4)cc23)C1` (stereo not drawn) had a half-inhibitory concentration (IC50) of 350 nM.
Still for that read-out and setting: then `CN1CCC(c2c[nH]c3ccc(/N=C(\N)c4ccco4)cc23)C1` (stereo not drawn), with 560 nM.
Turning to `CN1CC[C@@H](c2c[nH]c3ccc(/N=C(\N)c4cccs4)cc23)[C@H](F)C1`, the IC50 on Nitric oxide synthase 3 came out at 40100 nM.
